According to patent US12138291B2, “Hemostatic composition and hemostatic method using hemostatic composition” (3-D MATRIX, LTD., priority 2015, dated 2024):

Assays:
[1] = test system: bleeding site of the porcine liver; experiment: Hemostasis of oozing bleeding created by abrading the porcine liver, usual application vs spray application; assay type: in vivo, pig; details: for hemostasis outcome: peptide 1.5% (FIG. 9)
Source text: Oozing bleeding was created by abrading the porcine liver using a metal file. A self-organizing peptide solution was applied to the bleeding by usual application or spray application and evaluated for its hemostatic effect and applied amount.
• Animal species: pig • Breed: LWD • Sex: female • The number of animals introduced: 2 • Age in days at the time of introduction: any Body weight at the time of introduction: 50 kg Institute receiving the animals: Narita experimental laboratory of NAS Laboratory Co., Ltd. • Distributor of the animals: Ishige Tikusan • Acclimatization period: approximately 7 days after introduction • Quarantine: the absence of abnormalities was confirmed by quarantine under clinical observation at the time of introduction and during the acclimatization period. • Individual discrimination: ear tag <Rearing Conditions> (1) Rearing environment
Atropine sulfate was intramuscularly administered at 0.05 mg/kg (dosing volume: 0.1 mL/kg) to each animal. Approximately 30 minutes later, 20 mg/kg (dosing volume: 0.4 mL/kg) of ketamine hydrochloride and 4 mg/kg (dosing volume: 0.2 mL/kg) of xylazine hydrochloride were mixed and intramuscularly administered thereto. Each anesthetic was introduced by the intramuscular administration to the ear root using a disposable syringe (Terumo Corp.) attached with an 18 G injection needle (Terumo Corp.). Then, a tracheal tube (TOP intratracheal tube, TOP Corp.) was intubated, and the anesthesia was maintained with isoflurane using an inhalation anesthesia apparatus SUBARU-KJ02 (Mikasa Kantou Syoukai Co., Ltd.) and a mechanical ventilator (COMPOS β-EV, Metran Co., Ltd.). The perioperative isoflurane concentration was set to 1 to 3%, and the amount of oxygen was set to 2 L/min. The intrapulmonary pressure of the mechanical ventilator was set to 15 cm H2O, and the respiratory rate was set to 15 times/min. Each animal was placed supine on an operating table and covered with a sterilized drape.
• 1. Each completely anesthetized pig was laparotomized by abdominal midline incision using a surgical knife and an electric surgical knife to expose the liver. • 2. Oozing bleeding was created by abrading the liver using a metal file. • 3. Each test substance was applied to the bleeding inclined plane by usual application (*1) or spray application (*2). • 4. The time from after the end of application to the end of assessment of the completion of hemostasis was measured using a stopwatch (*3). The amount of each test substance used until the end of the test was recorded. • *1: A syringe was packed with the peptide solution (test substance), and the peptide solution was pushed out of a nozzle at the tip of the syringe and thereby applied to the subject (see the syringe of FIG. 1). • 2: A syringe (equivalent to that of FIG. 1) packed with the peptide solution (test substance) was loaded in a spray gun, and compressed air was blown to a nozzle at the tip of the syringe using a compressor so that the peptide solution pushed out of the nozzle was sprayed to the subject. The spray pressure was generally 0.5 to 1.5 [kgf/cm2], though differing depending on the viscosity of each test substance, the status of bleeding, and the distance to the application site. • 3: If bleeding was not weakened after initial application (if it was judged that this condition would not lead to hemostasis), additional application was appropriately performed. The time of completion of initial application was defined as the start of measurement, and the time of completion of hemostasis assessment was defined as the end of measurement. <Results>

[2] = Storage elastic modulus of peptide solutions before application (frequency sweep test); assay type: physicochemical; details: shear stress 1 Pa
Description: Frequency sweep tests were conducted from 1 rad/sec to 10 rad/sec at a shear stress of 1 Pa, and the storage elastic modulus at 10 rad/sec was selected as data. As for a viscosity before gelling, tests were conducted for a soaking time of 2 min by loading each peptide solution between 20 mm plates with a gap distance of 500 um.

[3] = peptide concentrations of 1.5% or higher (1.5%, 2.0%, 2.5%)

Sequence | amount of the solution applied until hemostasis, spray application group compared with usual application group ([1]; peptide concentration 1.0%) | hemostasis completion time, spray application group compared with usual application group ([1]; peptide concentration 1.0%) | amount of the solution applied until hemostasis, spray application group compared with usual application group ([1]; peptide concentration 1.5%) | hemostasis completion time, spray application group compared with usual application group ([1]; peptide concentration 1.5%) | Storage elastic modulus G′ (Pa) (mean: N = 3) ([2]; peptide 1.0% by weight, pH 3.0, at 10 rad/sec) | Storage elastic modulus G′ (Pa) (mean: N = 3) ([2]; peptide 1.5% by weight, pH 3.0, at 10 rad/sec) | amount of the solution applied until hemostasis, spray application group compared with usual application group [1, 3] | hemostasis completion time, spray application group compared with usual application group [1, 3] | Storage elastic modulus G′ (Pa) (mean: N = 3) ([2]; peptide 1.0% by weight, pH no treatment, at 10 rad/sec) | Storage elastic modulus G′ (Pa) (mean: N = 3) ([2]; peptide 1.5% by weight, pH no treatment, at 10 rad/sec) | Storage elastic modulus G′ (Pa) (mean: N = 3) ([2]; peptide 2.0% by weight, pH no treatment, at 10 rad/sec) | Storage elastic modulus G′ (Pa) (mean: N = 3) ([2]; peptide 2.5% by weight, pH no treatment, at 10 rad/sec) | hemostasis outcome ([1]; spray application) | hemostasis outcome ([1]; usual application) | Storage elastic modulus G′ (Pa) (mean: N = 3) ([2]; peptide 1.0% by weight, pH 7.5, at 10 rad/sec) | Storage elastic modulus G′ (Pa) (mean: N = 3) ([2]; peptide 1.5% by weight, pH 7.5, at 10 rad/sec) | Storage elastic modulus G′ (Pa) (mean: N = 3) ([2]; peptide 2.0% by weight, pH 7.5, at 10 rad/sec)
IEIKIEIKIEIKI [Peptide No. 2] | no significant difference | no significant difference | smaller amount of the solution applied until hemostasis | evidently resulted in a shorter hemostasis completion time | 349.0 | 2,309 Pa |  |  |  |  |  |  |  |  |  |  | 
RADARADARADARADA [Peptide No. 1] | smaller amount of the solution applied until hemostasis | tendencies of a shorter hemostasis completion time |  |  |  |  | smaller amount of the solution applied until hemostasis | evidently resulted in a shorter hemostasis completion time | 30 | 75 | 141 | 503 |  |  |  |  | 
RLDLRLALRLDLR (Ac-RLDLRLALRLDLR-NH2) [Peptide No. 3, self-assembling peptide, solution in purified water] |  |  |  |  |  |  |  |  |  |  |  |  | succeeded in hemostasis | failed in hemostasis | 75 | 239 | 439
